{"source": "patent US20060062797A1", "about": "“Novel materials and methods for the treatment of Alzheimer's disease patients” (The Research Foundation of State University of New York at …, priority 2004, published 2006)", "key": {"Aβ1-42 peptides": {"biological_target": "Aβ1-42 peptides (Homo sapiens, UniProt P05067)", "sequence (P05067 672-713)": "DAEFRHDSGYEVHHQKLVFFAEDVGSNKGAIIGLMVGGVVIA", "assay": "Electron microscopy of Aβ1-42 fibril formation in presence of inhibitor protein", "format": "biochemical", "conditions": "equimolar ratio with 13C-labeled Aβ1-42 peptides; images over two weeks", "experimental": "(§1) The amyloid fibril inhibitor protein (SEQ ID NO: 1) was incubated at an equimolar ratio with ^13C-labeled Aβ1-42 peptides. During this incubation, electron microscopic images were taken over the course of two weeks in accordance with Example 6. […] In fact, suspensions of Aβ1-42 protein (SEQ ID NO: 157) prepared at pH 7 were normally cloudy and formed gels during fibril growth.\nFibrillized amyloid samples were prepared by incubation of aqueous solutions at an Aβ1-42 peptide concentration of approximately 0.2 mM in 1.0 mM phosphate buffer at pH 7.0 with the pH adjusted as necessary by dropwise addition of dilute NaOH or acetic acid. 0.01% NaN3 was added to inhibit bacterial and fungal growth. The solution was incubated for approximately 10 days at a temperature of 24° C., with gentle rocking (200 rpm). Aliquots of incubated solutions were taken for electron microscopic observations after 3-5 days. Amyloid fibril formation was verified by electron microscopic images of negatively stained samples.\nFor electron microscopic analysis, a 5 μL sample of the amyloid fibril was placed on a carbon coated Foamvar 200 mesh copper grid. The sample was allowed to stand for 15-30 sec and any excess solution was removed by wicking away. The samples were negatively stained with 2% (w/v) uranyl acetate. The excess was wicked away and allowed to dry. […]"}, "[1]": {"test_system": "in vitro neuronal cell culture", "assay": "Neurotoxicity of inhibitor peptides alone in neuronal cell culture (cell count)", "format": "cell-based", "conditions": "peptide alone", "experimental": "(§2) An in vitro neuronal cell culture was grown to confluence and studied by cell count as a measure of neurotoxicity. Neurotoxicity was observed following one or two days of incubation with either polymerized Aβ1-42 peptide into amyloid fibrils (ag) or free (i.e., non-polymerized) Aβ1-42 peptides (sol). (See FIG. 9)."}, "[2]": {"assay": "Neurotoxicity of inhibitor peptides alone in neuronal cell culture (cell count)", "format": "cell-based", "conditions": "neuronal cell culture, 48 Hour Incubation, read-out: % Survival", "experimental": "as §2"}, "GpA70-86 fibrils": {"biological_target": "T1, GpA70-86 fibrils (Homo sapiens, UniProt P02724)", "T1 construct": "comprising a 17 amino acid peptide corresponding to amino acid residues 70-86", "assay": "Glycophorin A transmembrane peptide (GpA70-86) fibril formation, solid-state NMR", "format": "biochemical", "conditions": "for ability to inhibit amyloid fibril formation: \"this assay system\" of Example 2", "experimental": "In the experiments below, magic-angle-spinning (MAS) NMR was performed at 360 and 600 MHz on Bruker Avance NMR spectrometers using 4 mm MAS rotors. The cross polarization contact time was 2 ms, two-pulse phase-modulated (TPPM) decoupling was used during the evolution and mixing periods and the dipolar-assisted rotational-resonance (DARR) mixing time was 1 sec. The proton field strength was set to the n =1 rotational resonance condition during the mixing period. Takegoshi et al., “^13C-^1H Dipolar-Driven ^13C-^13C Recoupling Without ^13C RF Irradiation In Nuclear Magnetic Resonance Of Rotating Solids” J. Chem. Phys. 118:2325-2341 (2003). DARR gives rise to off-diagonal cross peaks in the 2D NMR spectra if the ^13C . . . ^13C contacts are less than 6 A apart.\nThis experiment tested the idea that the large side chain amino acids on one sheet dovetail into the grooves formed by glycine on an opposing β-sheet using a mixture of two differently labeled pools of GpA70-86 peptide. A first set of peptides were labeled with a single ^13C isotope label at the backbone carbonyl carbon of Gly^79. A second set of peptides were ^13C -labeled at the Met^81 methyl side chain group. Computer modeling of the GpA70-86 peptide β-sandwich predicted an inter-β-sheet distance of 3-5 Å between the carbonyl ^13C of Gly^79 and the ^13CH3 of Met^81. The intra-sheet distance, however, was predicted to be ˜8-10 Å, and outside of the detection range of the NMR experiment used. Solid-state NMR techniques measured the intermolecular distance between Met^81 13C-labeled methyl side chains and the carbonyl ^13C-Gly^79 on adjacent β-sheets.\nA truncated […], that mimics Aβ1-42 protein, was incubated with a glycine-rich transmembrane peptide (i.e., similar to APP). This target peptide corresponds to glycophorin A's transmembrane domain comprising a 17 amino acid peptide corresponding to amino acid residues 70-86. Glycophorin A, as a complete protein, is not known to form amyloid-like fibrils."}, "[3]": {"biological_target": "Preformed amyloid fibrils comprising Aβ1-42 peptides (Homo sapiens, UniProt P05067)", "sequence (P05067 672-713)": "as above", "assay": "Depolymerization of preformed amyloid fibrils (fluorescence intensity)", "format": "biochemical", "conditions": "1:20 molar ratio; for depolymerization of pre-existing Aβ1-42 fibrils (words): FIG. 8", "experimental": "Preformed amyloid fibrils comprising Aβ1-42 peptides were incubated with and without SEQ ID NO: 1 (I1) a 1:20 molar ratio."}, "[4]": {"test_system": "Aβ1-42 peptide induced neurotoxicity in neuronal cell culture", "assay": "Protection against Aβ1-42 peptide induced neurotoxicity in neuronal cell culture", "format": "cell-based", "conditions": "for inhibition of Aβ1-42 peptide induced neurotoxicity: 1:10 and 1:20; for amyloid plaque inhibition activity with protected termini: N- or C-terminal protected or both protected, data not shown; for reduction of Aβ1-42 neurotoxicity: added before Aβ1-42 peptides were allowed to polymerize", "experimental": "These peptides were tested in cell toxicity assays for their ability to prevent cell death (i.e., for example, by apoptotic mechanisms) induced by the Aβ1-42 peptide (SEQ ID NO:157).\nas §2\n(See FIG. 11A). […] (See FIG. 11B)."}, "Aβ1-42 peptide [5]": {"biological_target": "T2, Aβ1-42 peptide (Homo sapiens, UniProt P05067)", "T2 sequence (P05067 672-713)": "as above", "assay": "Fluorescence thioflavin T assay of amyloid fibrillization", "format": "biochemical", "experimental": "Amyloid fibrillization was measured by the fluorescence thioflavin T assay. Levine III, H, Methods in Enzymology 309: 274-305 (1999). The Aβ1-42 peptide was dissolved and fibrillization was followed over the course of two weeks by monitoring thioflavin T fluorescence. Hou et al., J. Am. Chem. Soc. in press (2004).\nThe effect of the inhibitor plateaus after three days and shown to be 70%±5 % effective in preventing fibrillization.\nInhibition activities were also measured by fluorescence intensity over time at the following molar ratios of Aβ1-42 peptide to SEQ ID NO:1 (I1) 1:0; 1:1; 1:5; and 1:20. (FIG. 7). […] Soto, et al., Nature Medicine 4:822-826 (1998); and Soto et al., Biochem. Biophys. Res. Comm. 226:672-680 (1996)."}, "[6]": {"biological_target": "Aβ1-42 protein (SEQ ID NO: 157) (Homo sapiens, UniProt P05067)", "sequence (P05067 672-713)": "as above", "assay": "Appearance (clearing, gel formation) of Aβ1-42 suspensions at pH 7", "format": "biochemical", "experimental": "as §1"}, "Aβ1-42 peptide [7]": {"biological_target": "T2, Aβ1-42 peptide", "conditions": "Soto et al. 1996, 1998; cited from earlier work"}, "[8]": {"conditions": "24 hours of polymerization / 24 hour incubation, FIG. 10A, 10B"}}, "note": "Like-named read-outs stand apart in the source and are kept apart here. No end group written: not given here.", "data": [{"substance": "H-RGTFEGKF-NH2 [SEQ ID NO: 1]", "values": [{"measurement": "fibrils in electron microscopic images", "setting": "Aβ1-42 peptides", "value": "no detectable fibrils"}, {"measurement": "toxicity of peptide by itself to neuronal cell culture", "setting": "[1]", "value": "not toxic by themselves"}, {"measurement": "toxicity of peptide by itself to neuronal cell culture", "setting": "[1]; listed as I1", "value": "not present"}, {"measurement": "viability at 48 h", "setting": "[2]; 10X", "value": "91.7 ± 5.6", "unit": "%"}, {"measurement": "viability at 48 h", "setting": "[2]; 20X", "value": "90.5 ± 6.4", "unit": "%"}, {"measurement": "glycophorin A transmembrane peptide fibril formation", "setting": "GpA70-86 fibrils; 1:1 molar ratio", "value": "can be blocked"}, {"measurement": "ability to inhibit amyloid fibril formation", "setting": "GpA70-86 fibrils", "value": "most effective"}, {"measurement": "NMR cross peak between Met81 and Gly79 of GpA70-86 fibrils", "setting": "GpA70-86 fibrils; equimolar amount of inhibitor, FIG. 4D", "value": "absent"}, {"measurement": "depolymerization of pre-existing Aβ1-42 fibrils (words)", "setting": "[3]", "value": "depolymerizes pre-existing amyloid fibrils"}, {"measurement": "depolymerization of pre-existing Aβ1-42 fibrils (words)", "setting": "[3]; listed as SEQ ID NO:1", "value": "depolymerizes Aβ1-42 fibrils"}, {"measurement": "depolymerization rate and polymerization rate", "setting": "[3]; after Day 4", "value": "apparently reaches equilibrium"}, {"measurement": "depolymerization rate", "setting": "[3]; first four incubation days", "value": "apparent linear depolymerization rate"}, {"measurement": "inhibition of Aβ1-42 peptide induced neurotoxicity", "setting": "[4]; [8]", "value": "Neither SEQ ID NO: 1 or SEQ ID NO: 160 reduced neurotoxicity"}, {"measurement": "inhibition of Aβ1-42 peptide induced neurotoxicity", "setting": "[4]; 24 hours of polymerization / 24 hour incubation, FIG. 10A, 10B, listed as SEQ ID NO:1", "value": "does not inhibit"}, {"measurement": "inhibition of Aβ1-42 peptide induced neurotoxicity", "setting": "[4]; 48 hours of polymerization / 48 hour incubation, FIG. 10C, 10D", "value": "dose-dependently inhibited neurotoxicity"}, {"measurement": "inhibition of Aβ1-42 peptide induced neurotoxicity", "setting": "[4]; 48 hours of polymerization / 48 hour incubation, FIG. 10C, 10D, listed as SEQ ID NO:1", "value": "does inhibit"}, {"measurement": "amyloid plaque inhibition activity with protected termini", "setting": "[4]", "value": "retain amyloid plaque inhibition activity"}, {"measurement": "reduction of Aβ1-42 neurotoxicity", "setting": "[4]", "value": "Neither SEQ ID NO: 1 or SEQ ID NO: 160 reduced neurotoxicity"}, {"measurement": "inhibition of Aβ1-42 fibrillization / amyloid fibril polymerization (words)", "setting": "Aβ1-42 peptide [5]; FIG. 6, FIG. 7", "value": "inhibits amyloid fibril polymerization in a time and dose-dependent manner"}, {"measurement": "inhibition of Aβ1-42 fibrillization / amyloid fibril polymerization (words)", "setting": "Aβ1-42 peptide [5]; FIG. 6, FIG. 7, listed as SEQ ID NO:1", "value": "inhibits fibrillization"}, {"measurement": "gel formation of Aβ1-42 suspensions", "setting": "[6]; pH 7, over a two week period or longer", "value": "did not form gel compositions"}, {"measurement": "time until Aβ1-42 suspensions became clear after addition", "setting": "[6]; suspensions prepared at pH 7", "value": "less than 5 seconds"}]}, {"substance": "RATFEAKF-NH2 [SEQ ID NO: 19]", "values": [{"measurement": "ability to inhibit amyloid fibril formation", "setting": "GpA70-86 fibrils", "value": "most effective"}, {"measurement": "amyloid plaque inhibition activity with protected termini", "setting": "[4]", "value": "retain amyloid plaque inhibition activity"}]}, {"substance": "H-LPFFD-NH2 [SEQ ID NO: 160, NH2-LPFFD-NH2, reference compound]", "values": [{"measurement": "toxicity of peptide by itself to neuronal cell culture", "setting": "[1]", "value": "not toxic by themselves"}, {"measurement": "toxicity of peptide by itself to neuronal cell culture", "setting": "[1]; listed as I6", "value": "not present"}, {"measurement": "viability at 48 h", "setting": "[2]; 10X", "value": "97.9 ± 4.2", "unit": "%"}, {"measurement": "viability at 48 h", "setting": "[2]; 20X", "value": "97.8 ± 6.6", "unit": "%"}, {"measurement": "reported inhibitor activity (literature)", "setting": "Aβ1-42 peptide [7]", "value": "effective inhibitor"}, {"measurement": "inhibition of Aβ1-42 peptide induced neurotoxicity", "setting": "[4]; [8]", "value": "Neither SEQ ID NO: 1 or SEQ ID NO: 160 reduced neurotoxicity"}, {"measurement": "inhibition of Aβ1-42 peptide induced neurotoxicity", "setting": "[4]; 24 hours of polymerization / 24 hour incubation, FIG. 10A, 10B, listed as SEQ ID NO:160", "value": "does not inhibit"}, {"measurement": "inhibition of Aβ1-42 peptide induced neurotoxicity", "setting": "[4]; 48 hours of polymerization / 48 hour incubation, FIG. 10C, 10D, listed as SEQ ID NO:160", "value": "does not inhibit"}, {"measurement": "reduction of Aβ1-42 neurotoxicity", "setting": "[4]", "value": "Neither SEQ ID NO: 1 or SEQ ID NO: 160 reduced neurotoxicity"}]}]}
